From patent US7750181B2, “Antiproliferative agents” (EPX Research Limited, priority 2002, dated 2010)
Where “and” joins values, the source holds several entries; their conditions need not be identical. Identical values can stand only once.

Experiments:
[1] = tested on: MAC15 tumour, murine colon cancer; experiment: Tumour growth inhibition, MAC15 tumour transplanted s.c.; type: in vivo, NMRI mice; conditions: intraperitoneal; for Tumour weight: individual animals
Method: (§1) Pure strain NMRI mice (age 6-8 weeks) from our inbred colony were used for transplanting MAC (murine colon cancer) tumours, M5076 reticulum cell sarcoma (ovarian) were transplanted in BDF1 mice purchased from Harlan, Bicester, U.K. Animals were fed on RM3E diet (Lillco-England) and water ad libitum.
The tumour is routinely passaged as an ascites. Approximately 2×10^5 cells were transplanted subcutaneously in saline in a volume of 0.2 ml. Mice were randomised in groups of 5-7 animals per group. Untreated or vehicle controls were included. Treatment commenced two days after transplant. Body weight was recorded daily. The effects of chemotherapy were assessed between 7-9 days after transplant. Mice were killed and the effects measured by the differences in tumour weights and expressed as: % T/C, i.e. […] Body weight changes were recorded in order to assess toxicity.

[2] = tested on: DLD-1 colon cancer human xenograft; experiment: Antitumour test, DLD-1 colon cancer human xenograft; type: in vivo, Nu nude mice; conditions: 500 mg/kg, i.p. days 0-4
Method: (§2) Fragments of the non-small cell lung cancer, H460, and DLD-1 colon cancer human xenografts were transplanted sub-cutaneously in both flanks of 14 female Nu nude mice from an inbred colony (B7K Universal, Hull, UK). Mice received CRM diet (SDS, WItham, UK) and water ad libitum. All experiments were carried out under a project license issued by the UK Home Office, and UKCCCR guidelines were followed throughout.
(§3) Therapy commenced once tumours had grown to a sufficient size to be measured accurately (minimum 4 mm×4 mm), which was 10 days for H460 and 19 days for DLD-1. 10 tumours grew sufficiently to use in 7 mice for both the test and untreated groups.
[…], and assessing tumour growth compared to a control untreated group until the tumours have reached the maximum permitted size (day 16 control and tested group).
(§4) In both cases tumour volumes were assessed by caliper measurements of 2 perpendicular diameters and the volumes estimated using the following equation: Volumes−(a^2×b)/2, where a is the smaller, and b the larger diameter of the two. The effects of the therapy were determined from the difference in tumour volume-doubling time between treated and control groups, and the significance of any tumour growth delay determined using the Mann-Whitney U Test.

[3] = tested on: H460 non-small cell lung cancer human xenograft; experiment: Antitumour test, H460 NSCLC human xenograft; type: in vivo, Nu nude mice; conditions: 500 mg/kg, i.p. days 0-4
Method: as §2, §3
In the case of H460, the compound of Example 4 was administered at a concentration of 500 mg/kg body weight/day, intraperitoneally (i.p.), daily for 5 days (designated days 0-4). Animals were monitored daily for any toxicity effects, and tumours were measured, and weights recorded daily over the period of therapy and then on day 7 (untreated and test groups), and day 8 (test group). On day 7 for the untreated group, and day 8 for the test group, the largest tumour diameter was greater than the maximum permitted 17 mm, and subjects were then euthenised by UK Home Office Schedule 1 methods.
as §4

[4] = tested on: M5076 tumour, ovarian cancer (reticulum cell sarcoma); experiment: Tumour growth inhibition, M5076 tumour transplanted i.m.; type: in vivo, BDF1 mice; conditions: 400 mg/kg body weight, intraperitoneal, days of treatment 1-11
From the text: as §1
(§5) Approximately 2×2 mm of MAC13 tumour fragments were transplanted subcutaneously in the inguinal region via a trocar while the M5076 was homogenised and 1×10^6 cells transplanted intramuscularly in the inguinal region. Tumour bearing mice were randomised in groups of 5-7 animals per group. Treatment commenced one day after transplant for M5076 and two days for MAC13. Untreated or vehicle controls were included. Daily weights were recorded. Chemotherapy effects were assessed on day 14 or thereabouts depending on the tumour sizes and condition of the animals. Mice were killed and the effects of the chemotherapy were assessed by the differences in tumour weights and expressed as: % T/C, i.e. inhibition=100-Treated weight/Control weight×100% Body weight changes were recorded in order to assess toxicity. MAC15A

[5] = tested on: MAC 13 tumour, murine colon cancer; experiment: Tumour growth inhibition, MAC 13 tumour transplanted s.c.; type: in vivo, NMRI mice; conditions: 400 mg/kg body weight, intraperitoneal, days of treatment 1-5
From the text: as §1, §5

[6] = RTV2 = relative tumour volume doubling
[7] = 300 mg/kg body weight, days of treatment 1-5
[8] = 400 mg/kg body weight, days of treatment 1-5

CN1C(=O)C(Cl)=C(Cl)C(=O)C1O (centres unmarked) [Example 4, 3,4-dichloro-6-hydroxy-1-methyl-2,5-dioxo-1.6-dihydropyridine]
% Tumour growth inhibition ([1]; 500 mg/kg body weight, day 1-5): 86% | Mean tumour weight ([1]; 500 mg/kg body weight, day 1-5): 0.056 g | Tumour weight ([1]; 500 mg/kg body weight, day 1-5, 500 mg/kg): 0.076 g and 0.033 g and 0.0 g (3×) and 0.090 g and 0.060 g and 0.134 g and 0.114 g | Maximum % weight loss [2]: 4.3% | Median time RTV2 [2]: 9.8 days | Mean time to RTV2 [2, 6]: 9.9 days | Growth delay ([2]; versus untreated controls): 6.7 days | Maximum % weight loss [3]: 6.9% | Median time RTV2 [3]: 6.4 days | Mean time to RTV2 [3, 6]: 6.2 days | Growth delay ([3]; versus untreated controls): 3.9 days

CN(C=O)C(=O)/C(Cl)=C(/Cl)C(=O)O [Example 3, (Z)-2,3-dichloro-4-[N-formyl-N-methylamino]-4-oxo-but-2-enoic acid]
% Tumour growth inhibition [1, 7]: 68% | Mean tumour weight [1, 7]: 0.195 g | % Tumour growth inhibition [1, 8]: 81% | Mean tumour weight [1, 8]: 0.117 g | Tumour weight ([1]; 300 mg/kg body weight, days of treatment 1-5, 300 mg/kg): 0.194 g and 0.201 g and 0.190 g and 0.176 g and 0.214 g | Tumour weight ([1]; 400 mg/kg body weight, days of treatment 1-5, 400 mg/kg): 0.074 g and 0.094 g and 0.190 g and 0.096 g and 0.132 g | % Tumour growth inhibition [4]: 97% | Mean tumour weight [4]: 0.008 g | Tumour weight ([4]; individual animals, 400 mg/kg): 0 g (5×) and 0.052 g | % Tumour growth inhibition [5]: 92% | Mean tumour weight [5]: 0.031 g | Tumour weight ([5]; individual animals, 400 mg/kg): 0.053 g and 0.045 g and 0.030 g and 0.023 g and 0.0 g and 0.036 g
